From US20240009213A1, “TREATMENT FOR VIRAL INFECTION” (priority 2020, published 2024)

What was measured:
[1] = system: influenza A/California/07/2009 (H1N1), influenza A/PR/8/1934 (H1N1), influenza A/Vietnam/1194/2004 (H5N1); assay: microbe, parasite or virus in culture; type: cell-based, influenza A virus; conditions: for IC50: Influenza A virus, MDCK, 50 h
[2] = system: influenza A/PuertoRico/1934 (H1N1); assay: Protection of mice against lethal influenza H1N1 challenge; type: in vivo, BALB/c mice; conditions: 5×LD50 influenza A/PuertoRico/1934 (H1N1) day 0; 25 mg/kg orally once daily day 1 to day 7
SARS-CoV-2 [3] = assay: Protection of mice against lethal SARS-CoV-2 challenge; type: in vivo, F1 mice of BALB/c/C57BL6 mice; conditions: 5×LD50 SARS-CoV-2 day 0; 25 mg/kg orally once daily day 1 to day 7
SARS-CoV-2 [4] = type: cell-based

Question: With `CCc1cc2c(cc1N1CCC(N3CCOCC3)CC1)C(C)(C)c1[nH]c3cc(C#N)ccc3c1C2=O` [alectinib, 9-ethyl-6,6-dimethyl-8-(4-morpholin-4-ylpiperidin-1-yl)-11-oxo-5H-benzo[b]carbazole-3-carbonitrile] as the molecule, how does the IC50 [1] read?
Answer: 1000 to 4000 nM

Question: How did the IC50 [1] turn out when `C[C@@H](Oc1cc(-c2cnn(C3CCNCC3)c2)cnc1N)c1c(Cl)ccc(F)c1Cl` [crizotinib, 3-[(1R)-1-(2,6-dichloro-3-fluorophenyl)ethoxy]-5-(1-piperidin-4-ylpyrazol-4-yl)pyridin-2-amine] was run?
Answer: 1000 to 4000 nM

Question: And the survival of mice [2]?
Answer: 38%

Question: `Cc1cc(Nc2ncc(Cl)c(Nc3ccccc3S(=O)(=O)C(C)C)n2)c(OC(C)C)cc1C1CCNCC1` [ceritinib, 5-chloro-2-N-(5-methyl-4-piperidin-4-yl-2-propan-2-yloxyphenyl)-4-N-(2-propan-2-ylsulfonylphenyl)pyrimidine-2,4-diamine] was tested. Which IC50 [1] did it give?
Answer: 100 to 1000 nM

Question: What about the survival of mice (SARS-CoV-2 [3]) of the same molecule?
Answer: 29%

Question: For `C[C@@H]1CN(C(=O)c2ccc(NC(=O)c3cc(O[C@H](C)c4c(Cl)ccc(F)c4Cl)c(N)nn3)cc2)C[C@H](C)N1` [ensartinib, 6-amino-5-[(1R)-1-(2,6-dichloro-3-fluorophenyl)ethoxy]-N-[4-[(3R,5S)-3,5-dimethylpiperazine-1-carbonyl]phenyl]pyridazine-3-carboxamide], which IC50 [1] is on record?
Answer: 1000 to 4000 nM

Question: How did the IC50 [1] turn out when `CN1CCN(c2ccc(C(=O)Nc3n[nH]c4ccc(Cc5cc(F)cc(F)c5)cc34)c(NC3CCOCC3)c2)CC1` [entrectinib, N-[5-[(3,5-difluorophenyl)methyl]-1H-indazol-3-yl]-4-(4-methylpiperazin-1-yl)-2-(oxan-4-ylamino)benzamide] was run?
Answer: 1000 to 4000 nM

Question: How did the “virus assembly/secretion (viral OD, viral titres)” value [1] turn out when `C[C@H]1Oc2cc(cnc2N)-c2c(nn(C)c2C#N)CN(C)C(=O)c2ccc(F)cc21` [lorlatinib] was run?
Answer: viral titres remain high for all doses tested

Question: What about the “inhibition of SARS-CoV-2” value (SARS-CoV-2 [4]) of the same molecule?
Answer: but not lorlatinib, inhibited SARS-CoV-2

Question: With `COc1cc(N2CCC(N3CCN(C)CC3)CC2)ccc1Nc1ncc(Cl)c(Nc2ccccc2P(C)(C)=O)n1` [brigatinib, 5-chloro-4-N-(2-dimethylphosphorylphenyl)-2-N-[2-methoxy-4-[4-(4-methylpiperazin-1-yl)piperidin-1-yl]phenyl]pyrimidine-2,4-diamine] as the molecule, how does the IC50 [1] read?
Answer: 1000 to 4000 nM

Question: And the survival of mice [2]?
Answer: 12.5%
